Laboratory results as given in patent publication US4401827A, “Novel acyl-derivatives of carnitine and process for their preparation” (Sigma-Tau, priority 1978, dated 1983).
Read-outs that look alike come from different tables or passages of the source.

Key:
rat's ventricle strip = assay: antiarrhythmic effect, isolated rat ventricle strip test; conditions: for inhibition at 1 µM / activation at 1 µM: Rattus norvegicus, concentration 1·10^-6 M; for inhibition at 1 µM: decrease; for activation at 1 µM: increase
From the text: (2) M. Libonati and G. Segre, Archivio Italiano di Scienze Farmacologiche. Serie XIII, Vol. X, pag. 3, (1960)
effect of some acyl derivatives (concentration 1 · 10^-6
of the formula (1) on the rat's ventricle strip test.
% variation versus basal value.

[1] = acute toxicity (tolerance) i.p. in mice, Weil method; conditions: mouse, in vivo, ip, Weil method (N = 5, K = 4)
From the text: The tolerance of the Acyl-carnitines of the formula (I), as well as their salts administered by intraperitoneal route was investigated in mice using the Weil Method (1).
LD50, mg kg^-1 i.p. in mice,
of some acyl derivatives of formula (1).
Weil method (N = 5, K = 4)

[2] = test system: arrhythmia induced by Aconitine in mice; assay: arrhythmia induced by Aconitine in mice; assay type: in vivo; conditions: for change in vivo at 300 mg/kg / change in vivo at 40 mg/kg / change in vivo at 150 mg/kg / change in vivo at 75 mg/kg / change in vivo at 89 mg/kg: Mus musculus, iv; for antiarrhythmic activity (in words): Aconitine, mice
Procedure: The antiarrhythmic effect of the compounds was also investigated in mice according to the P. W. Nwangwu, T. Holcslow procedure (4). Using Aconitine (5 mg/ml) as arrhythmogenic agent, the changes in the cardiac rhythm of the animals were recorded and the onset time of initial arrhythmia and/or of ventricular tachycardia were used as End point.
Antiarrhythmic agents display an increase in the latency time of initial ECG change.
(4) P. W. Nvangvu, T. L. Holcslow, Arch. Int. Pharmacodyn. 229, 219 (1977)
on the arrhythmia induced by Aconitine (5 γ/ml) in mice.
% increase of the time to onset of initial cardiac arrythmia

[3] = test system: plasma cholesterol, triglycerides and lipoproteins in rat; assay: plasma cholesterol, triglycerides and lipoproteins in rat treated with olive oil; assay type: in vivo; conditions: for lipoproteic pattern altered due to oil administration (in words): rats, single treatment
Procedure: In the rats the lipoproteic pattern altered due to an oil administration by gavage, was restored after a single treatment with d,l dipropyl ACAR; d,l ethyl exanoyl CAR; d,l 3 bromopropionyl CAR and d,l pyruvyl CAR.
The effect of some acyl derivatives of formula (I) on plasma cholesterol,
triglycerides and lipoproteins in rat
treated with olive oil, 15 ml kg^-1 orally. Mean Values ± SEM
Student "t" test .quadrature., Δ and indicate respectively a non
significant difference, a P ≤ 1% and 1%.

rabbit hearts = assay: cardiokinetic effect on isolated rabbit heart (Langendorff) after anoxia; conditions: equal concentrations in perfusion fluid, Student's t test versus controls
Procedure: The cardiokinetic effect on isolated heart was also investigated as follows. Rabbit hearts isolated by the Langendorff method were perfused with oxygenized ringer solution at 38.2° C. The isometric contractions, electrocardiogram and coronary flow were recorded using a "Battaglia-Rangoni" polygraph. By removing the oxygen from the perfusion fluid, metabolic damage was induced in the cardiac muscle, up to an 80% reduction in the cardiac contractile force.
Under these conditions of prolonged anoxia the aerobic glycolysis of the myocardium is slowed down, accompanied by the storage of acid catabolites due to both the accumulation of pyruvic acid and its conversion to lactic acid which cannot be utilized because of the depression of pyridine enzymes, such as LDH (lactodehydrogenase). This has repercussions on the anaerobic glycolysis affecting an ever increasing number of enzymes, accompanied by a progressive and increasingly critical exhaustion of the myocardium. Thus a whole series of cardiac muscle fatigue levels occurs which can be observed by the behavior of the examined parameters, namely the contractile force, coronary flow, heart rate and cardiac rhythm. As soon as the contractile force was reduced by 80%, the perfusion fluid was once again oxygenized either without adding other compounds (controls) or with the addition of the compounds under examination.
Table 2 below gives the percentage values of the contractile force of the heart, showing a positive inotropic effect, calculated after 10 minutes from the interruption of the anoxic period (myocardial restoration).
of some acyl derivatives of formula (I) on the contractile
force of rabbit's heart. (Details are given in the text)

[4] = read-out: maximed frequency (- %), % variation versus basal value
[5] = read-out: whole excitability (- %), % variation versus basal value
[6] = read-out: refractory period (+ %), % variation versus basal value
[7] = read-out: rheobase (+ %), % variation versus basal value
[8] = read-out: latency time increase % of controls, arrhythmias
[9] = read-out: latency time increase % of controls, tachycardia

Structure (SMILES) | inhibition at 1 µM (rat's ventricle strip; [4]) [%] | inhibition at 1 µM (rat's ventricle strip; [5]) [%] | activation at 1 µM (rat's ventricle strip; [6]) [%] | activation at 1 µM (rat's ventricle strip; [7]) [%] | LD50 [1] [mg/kg] | change in vivo at 300 mg/kg [2, 8] [%] | change in vivo at 300 mg/kg [2, 9] [%] | change in vivo at 150 mg/kg [2, 8] [%] | change in vivo at 150 mg/kg [2, 9] [%] | also measured
CC(C)Cc1ccc(CC(=O)OC(CC(=O)[O-])C[N+](C)(C)C)cc1 (racemic) [d,l p-isobutyl phenyl ACAR] | 38.2 | 35.2 | 22.5 | 22.2 | 378 | 20 | 10 |  |  | 
CCCCC(CC)C(=O)OC(CC(=O)[O-])C[N+](C)(C)C (racemic) [d,l 2-ethylhexanoyl CAR] | 25.5 | 40.3 | 22.8 | 21.8 | 950 | 20 | 10 |  |  | lipoproteic pattern altered due to oil administration (in words) [3]: restored
CCC(CC)C(=O)OC(CC(=O)[O-])C[N+](C)(C)C (racemic) [d,l diethyl ACAR] | 25.1 | 27.5 | 31.2 | 20.6 | 1200 | 25 | 32 |  |  | 
C[N+](C)(C)C[C@@H](CC(=O)[O-])OC(=O)C=Cc1cccc(C(F)(F)F)c1 [l trifluoromethylcinnamoyl CAR] | 32.7 | 60.5 | 40.1 | 39.2 | 540 |  |  |  |  | change in vivo at 40 mg/kg [2, 8]: 60%; change in vivo at 40 mg/kg [2, 9]: 45%
CCCC(CCC)C(=O)O[C@@H](CC(=O)[O-])C[N+](C)(C)C [d dipropyl ACAR] | 22.4 | 25.5 | 38.3 | 21.7 | 1600 |  |  |  |  | change in vivo at 40 mg/kg [2, 8]: 50%; change in vivo at 40 mg/kg [2, 9]: 30%
C[N+](C)(C)CC(CC(=O)[O-])OC(=O)C=Cc1cccc(Br)c1 (racemic) [d,l m-bromocinnamoyl CAR] | 28.5 | 50.4 | 45.2 | 38.1 | 650 |  |  | 40 | 28 | 
C[N+](C)(C)CC(CC(=O)[O-])OC(=O)CCBr (racemic) [d,l 3-Br--propionyl CAR] | 17.3 | 39.7 | 40.2 | 26.1 | 950 |  |  | 20 | 10 | Lipoproteins, VLDL ([3]; olive oil 15 ml kg^-1 orally, compound ip, mean ± SEM, N = 8, oil control 15.84 ± 1.53): 11.22 ± 1.22%; Lipoproteins, HDL ([3]; olive oil 15 ml kg^-1 orally, compound ip, mean ± SEM, N = 8, oil control 24.18 ± 2.15): 30.45 ± 2.87%; Lipoproteins, LDL ([3]; olive oil 15 ml kg^-1 orally, compound ip, mean ± SEM, N = 8, oil control 57.38 ± 2.25): 51.26 ± 2.49%; cholesterol ([3]; olive oil 15 ml kg^-1 orally, compound ip, mean ± SEM, N = 8, oil control 88.33 ± 2.96): 76.18 ± 3.02 mg/100 ml; triglycerides ([3]; olive oil 15 ml kg^-1 orally, compound ip, mean ± SEM, N = 8, oil control 213.66 ± 28.68): 123.48 ± 12.16 mg/100 ml; lipoproteic pattern altered due to oil administration (in words) [3]: restored
C[N+](C)(C)CC(CC(=O)[O-])OC(=O)C1CCCCC1 (racemic) [d,l cyclohexyl CAR] | 22.1 | 26.4 | 15.8 | 18.2 | 850 | 50 | 38 |  |  | 
CC(C)(C)C(=O)O[C@H](CC(=O)[O-])C[N+](C)(C)C [l pivaloyl CAR] | 60.4 | 48.1 | 38.3 | 35.1 | 618 | 25 | 15 |  |  | 
C[N+](C)(C)CC(CC(=O)[O-])OC(=O)Cc1ccc2ccccc2c1 (racemic) [d,l naphtalene ACAR] | 41.2 | 40.1 | 39.3 | 41.2 | 880 |  |  |  |  | change in vivo at 75 mg/kg [2, 8]: 25%; change in vivo at 75 mg/kg [2, 9]: 10%
C[N+](C)(C)CC(CC(=O)[O-])OC(=O)CCC1CCCCC1 (racemic) [d,l cyclohexylpropionyl CAR] | 45.3 | 25.5 | 12.5 | 22.4 | 955 |  |  | 70 | 55 | antiarrhythmic activity (in words) [2]: markedly exhibited
C[N+](C)(C)CC(CC(=O)[O-])OC(=O)C=Cc1cccc(C(F)(F)F)c1 (racemic) [d,l trifluoromethylcinnamoyl CAR] | 41.3 | 24.3 | 25.7 | 19.5 | 845 |  |  |  |  | change in vivo at 40 mg/kg [2, 8]: 50%; change in vivo at 40 mg/kg [2, 9]: 30%
C=C[C@H]1C[N@@]2CC[C@H]1C[C@@H]2[C@@H](O)c1ccnc2ccc(OC)cc12 [Quinidine, reference compound] | 72.5 | 191 | 57.4 | 51.2 |  |  |  |  |  | change in vivo at 89 mg/kg [2, 8]: 50%; change in vivo at 89 mg/kg [2, 9]: 41.7%
C[N+](C)(C)CC(CC(=O)[O-])OC(=O)CCCCl (racemic) [d,l 4-Cl--butyryl CAR] | 60.2 | 55.1 | 38.3 | 35.2 | 850 | 20 | 10 |  |  | antiarrhythmic properties (in words) (rat's ventricle strip; isolated rat ventricle method): most clear out antiarrhythmic properties
COc1ccc(C=CC(=O)OC(CC(=O)[O-])C[N+](C)(C)C)cc1 (racemic) [d,l p-methoxycinnamoyl CAR] | 22.2 | 31.5 | 36.1 | 22.2 | 440 |  |  | 70 | 56 | antiarrhythmic activity (in words) [2]: markedly exhibited
C[N+](C)(C)CC(CC(=O)[O-])OC(=O)CCBr (centres unmarked) [bromopropionyl] |  |  |  |  |  |  |  |  |  | positive inotropic effect (in words) (rabbit hearts): greater positive inotropic effect than that of the other compounds under examination
Cc1ccc(C=CC(=O)OC(CC(=O)[O-])C[N+](C)(C)C)cc1 (racemic) [d,l p-methylcinnamoyl CAR] | 38.6 | 71.1 | 45.3 | 32.4 | 620 |  |  | 20 | 9 | 
C[N+](C)(C)C[C@@H](CC(=O)[O-])OC(=O)CCBr [l 3-Br--propionyl CAR] | 50.5 | 60.2 | 45.1 | 42.4 | 960 |  |  | 25 | 12 | 
C[N+](C)(C)CC(CC(=O)[O-])OC(=O)C=Cc1ccc(Cl)cc1 (racemic) [d,l p-chlorocinnamoyl CAR] | 25.1 | 22.2 | 22.3 | 20.4 | 935 | 25 | 10 |  |  | 
CC(C)(C)C(=O)OC(CC(=O)[O-])C[N+](C)(C)C (racemic) [d,l pivaloyl CAR] | 58.4 | 65.5 | 40.6 | 40.2 | 855 | 20 | 10 |  |  | 
